In the supplement of paper PMC9663587:

What was measured:
Paclitaxel = compound: CC(=O)O[C@H]1C(=O)[C@@]2(C)[C@H]([C@H](OC(=O)c3ccccc3)[C@]3(O)C[C@H](OC(=O)[C@H](O)[C@@H](NC(=O)c4ccccc4)c4ccccc4)C(C)=C1C3(C)C)[C@]1(OC(C)=O)CO[C@@H]1C[C@@H]2O [Paclitaxel]
Vorinostat = compound: O=C(CCCCCCC(=O)Nc1ccccc1)NO [Vorinostat]
Buparlisib/NVP-BKM120 = compound: Nc1cc(C(F)(F)F)c(-c2cc(N3CCOCC3)nc(N3CCOCC3)n2)cn1 [Buparlisib/NVP-BKM120]
Cabozantinib = compound: COc1cc2nccc(Oc3ccc(NC(=O)C4(C(=O)Nc5ccc(F)cc5)CC4)cc3)c2cc1OC [Cabozantinib]
[1] = compound: CCN1CCN(Cc2ccc(Nc3ncc(F)c(-c4cc(F)c5nc(C)n(C(C)C)c5c4)n3)nc2)CC1
[2] = compound: CCc1cnn2c(NCc3ccc[n+]([O-])c3)cc(N3CCCC[C@H]3CCO)nc12
[3] = compound: CC(=O)c1c(C)c2cnc(Nc3ccc(N4CCNCC4)cn3)nc2n(C2CCCC2)c1=O; assay: GR value, 72 h; higher = faster growth (1 = untreated, <0 = killing);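 also: breast cancer and non-malignant breast epithelial lines, nine half-log doses, viable cells counted by Hoechst and LIVE/DEAD dye imaging versus time-zero plates and DMSO controls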
[4] = compound: CCN1CCN(Cc2ccc(Nc3ncc(F)c(-c4cc(F)c5nc(C)n(C(C)C)c5c4)n3)nc2)CC1; assay: as above
[5] = compound: CCc1cnn2c(NCc3ccc[n+]([O-])c3)cc(N3CCCC[C@H]3CCO)nc12; assay: as above
AZD5363 = compound: NC1(C(=O)N[C@@H](CCO)c2ccc(Cl)cc2)CCN(c2nc[nH]c3nccc2-3)CC1 [AZD5363]
BSJ-03-123 = compound: CC(=O)c1c(C)c2cnc(Nc3ccc(N4CCN(CCOCCOCCOCCNC(=O)COc5cccc6c5C(=O)N(C5CCC(=O)NC5=O)C6=O)CC4)cn3)nc2n(C2CCCC2)c1=O [BSJ-03-123]
YKL-5-124 = compound: C=CC(=O)Nc1ccc(C(=O)Nc2[nH]nc3c2CN(C(=O)N[C@H](CN(C)C)c2ccccc2)C3(C)C)cc1 [YKL-5-124]; assay: GR value, 72 h; higher = faster growth (1 = untreated, <0 = killing);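 also: breast cancer and non-malignant breast epithelial lines, nine half-log doses, viable cells counted by Hoechst and LIVE/DEAD dye imaging versus time-zero plates and DMSO controls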
THZ1 = compound: CN(C)C/C=C/C(=O)Nc1ccc(C(=O)Nc2cccc(Nc3ncc(Cl)c(-c4c[nH]c5ccccc45)n3)c2)cc1 [THZ1]; assay: as above
Flavopiridol = compound: CN1CC[C@H](c2c(O)cc(O)c3c(=O)cc(-c4ccccc4Cl)oc23)[C@H](O)C1 [Flavopiridol]; assay: as above
THZ531 = compound: CN(C)C/C=C/C(=O)Nc1ccc(C(=O)N2CCC[C@@H](Nc3ncc(Cl)c(-c4c[nH]c5ccccc45)n3)C2)cc1 [THZ531]; assay: as above
LEE011/Ribociclib = compound: CN(C)C(=O)c1cc2cnc(Nc3ccc(N4CCNCC4)cn3)nc2n1C1CCCC1 [LEE011/Ribociclib]; assay: as above
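For GR50, 72 h in this document: breast cancer and non-malignant breast epithelial cell lines, Deep Dye Drop or Dye Drop imaging, nine half-log doses, GR normalized to time-zero plates and DMSO-only controls.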

Question: How did the “GR50, 72 h” value (Paclitaxel) turn out when MDAMB157 was run?
Answer: 0.00205 µM

Question: And the “GR50, 72 h” value (Vorinostat)?
Answer: 1.1 µM

Question: What about the “GR50, 72 h” value (Buparlisib/NVP-BKM120) of the same cell line?
Answer: 1.28 µM

Question: What about the “GR50, 72 h” value (Cabozantinib) of the same cell line?
Answer: 2.78 µM

Question: And the “GR50, 72 h” value [1]?
Answer: 1.8 µM

Question: What about the “GR50, 72 h” value [2] of the same cell line?
Answer: 0.0177 µM

Question: What about the GR value ([3]; 0.0003162 µM) of the same cell line?
Answer: 0.945 GR

Question: What about the GR value ([3]; 0.001 µM) of the same cell line?
Answer: 0.976 GR

Question: What about the GR value ([3]; 0.003162 µM) of the same cell line?
Answer: 0.969 GR

Question: And the GR value ([3]; 0.01 µM)?
Answer: 1.08 GR

Question: And the GR value ([3]; 0.03162 µM)?
Answer: 1.02 GR

Question: And the GR value ([3]; 0.1 µM)?
Answer: 1.02 GR

Question: What about the GR value ([3]; 0.3162 µM) of the same cell line?
Answer: 0.965 GR

Question: What about the GR value ([3]; 1 µM) of the same cell line?
Answer: 1.05 GR

Question: And the GR value ([3]; 3.162 µM)?
Answer: 0.991 GR

Question: And the GR value ([4]; 0.001 µM)?
Answer: 1.01 GR

Question: And the GR value ([4]; 0.003162 µM)?
Answer: 1.08 GR

Question: What about the GR value ([4]; 0.01 µM) of the same cell line?
Answer: 0.993 GR

Question: And the GR value ([4]; 0.03162 µM)?
Answer: 0.928 GR

Question: And the GR value ([4]; 0.1 µM)?
Answer: 0.913 GR

Question: And the GR value ([4]; 0.3162 µM)?
Answer: 0.727 GR

Question: And the GR value ([4]; 1 µM)?
Answer: 0.578 GR

Question: And the GR value ([4]; 3.162 µM)?
Answer: 0.441 GR

Question: What about the GR value ([4]; 10 µM) of the same cell line?
Answer: -0.587 GR

Question: What about the GR value ([5]; 0.0001 µM) of the same cell line?
Answer: 1.07 GR

Question: And the GR value ([5]; 0.0003162 µM)?
Answer: 1.05 GR

Question: And the GR value ([5]; 0.001 µM)?
Answer: 1.06 GR

Question: And the GR value ([5]; 0.003162 µM)?
Answer: 0.982 GR

Question: And the GR value ([5]; 0.01 µM)?
Answer: 0.929 GR

Question: And the GR value ([5]; 0.03162 µM)?
Answer: -0.488 GR

Question: What about the GR value ([5]; 0.1 µM) of the same cell line?
Answer: -0.86 GR

Question: What about the GR value ([5]; 0.3162 µM) of the same cell line?
Answer: -0.899 GR

Question: What about the GR value ([5]; 1 µM) of the same cell line?
Answer: -0.915 GR

Question: What does the source list for MDAMB330?
Answer: GR50, 72 h (Paclitaxel): 0.00423 µM; GR50, 72 h (Vorinostat): 1.55 µM; GR50, 72 h (Buparlisib/NVP-BKM120): 0.511 µM; GR50, 72 h (AZD5363): 0.198 µM; GR50, 72 h (Cabozantinib): > 10 µM; GR50, 72 h [1]: 0.00409 µM; GR50, 72 h [2]: 0.0203 µM; GR50, 72 h (BSJ-03-123): 0.297 µM; GR value ([3]; 0.0003162 µM): 1.06 GR; GR value ([3]; 0.001 µM): 0.943 GR; GR value ([3]; 0.003162 µM): 0.931 GR; GR value ([3]; 0.01 µM): 0.747 GR; GR value ([3]; 0.03162 µM): 0.376 GR; GR value ([3]; 0.1 µM): 0.224 GR; GR value ([3]; 0.3162 µM): 0.17 GR; GR value ([3]; 1 µM): 0.228 GR; GR value ([3]; 3.162 µM): 0.213 GR; GR value (YKL-5-124; 0.001 µM): 0.265 GR; GR value (YKL-5-124; 0.003162 µM): 0.245 GR; GR value (YKL-5-124; 0.01 µM): 0.149 GR; GR value (YKL-5-124; 0.03162 µM): 0.177 GR; GR value (YKL-5-124; 0.1 µM): 0.133 GR; GR value (YKL-5-124; 0.3162 µM): -0.0197 GR; GR value (YKL-5-124; 1 µM): 0.0836 GR; GR value (YKL-5-124; 3.162 µM): 0.0626 GR; GR value (YKL-5-124; 10 µM): -0.732 GR; GR value (THZ1; 0.0001 µM): 1.19 GR; GR value (THZ1; 0.0003162 µM): 0.925 GR; GR value (THZ1; 0.001 µM): 1.1 GR; GR value (THZ1; 0.003162 µM): 0.734 GR; GR value (THZ1; 0.01 µM): 0.455 GR; GR value (THZ1; 0.03162 µM): -0.545 GR; GR value (THZ1; 0.1 µM): -0.924 GR; GR value (THZ1; 0.3162 µM): -0.898 GR; GR value (THZ1; 1 µM): -0.945 GR; GR value (Flavopiridol; 0.0001 µM): 0.986 GR; GR value (Flavopiridol; 0.0003162 µM): 0.935 GR; GR value (Flavopiridol; 0.001 µM): 1.03 GR; GR value (Flavopiridol; 0.003162 µM): 1.01 GR; GR value (Flavopiridol; 0.01 µM): 0.911 GR; GR value (Flavopiridol; 0.03162 µM): 0.85 GR; GR value (Flavopiridol; 0.1 µM): 0.735 GR; GR value (Flavopiridol; 0.3162 µM): 0.285 GR; GR value (Flavopiridol; 1 µM): -0.892 GR; GR value (THZ531; 0.0001 µM): 1.12 GR; GR value (THZ531; 0.0003162 µM): 0.83 GR; GR value (THZ531; 0.001 µM): 0.891 GR; GR value (THZ531; 0.003162 µM): 0.971 GR; GR value (THZ531; 0.01 µM): 0.805 GR; GR value (THZ531; 0.03162 µM): 0.214 GR; GR value (THZ531; 0.1 µM): -0.965 GR; GR value (THZ531; 0.3162 µM): -0.962 GR; GR value (THZ531; 1 µM): -0.968 GR; GR value (LEE011/Ribociclib; 0.001 µM): 0.451 GR; GR value (LEE011/Ribociclib; 0.003162 µM): 0.229 GR; GR value (LEE011/Ribociclib; 0.01 µM): 0.361 GR; GR value (LEE011/Ribociclib; 0.03162 µM): 0.14 GR; GR value (LEE011/Ribociclib; 0.1 µM): 0.106 GR; GR value (LEE011/Ribociclib; 0.3162 µM): -0.116 GR; GR value (LEE011/Ribociclib; 1 µM): 0.15 GR; GR value (LEE011/Ribociclib; 3.162 µM): 0.292 GR; GR value (LEE011/Ribociclib; 10 µM): 0.293 GR; GR value ([4]; 0.001 µM): 0.797 GR; GR value ([4]; 0.003162 µM): 0.615 GR; GR value ([4]; 0.01 µM): 0.306 GR; GR value ([4]; 0.03162 µM): 0.178 GR; GR value ([4]; 0.1 µM): 0.197 GR; GR value ([4]; 0.3162 µM): 0.241 GR; GR value ([4]; 1 µM): 0.202 GR; GR value ([4]; 3.162 µM): 0.199 GR; GR value ([4]; 10 µM): -0.0587 GR; GR value ([5]; 0.0001 µM): 1.02 GR; GR value ([5]; 0.0003162 µM): 1.09 GR; GR value ([5]; 0.001 µM): 1.09 GR; GR value ([5]; 0.003162 µM): 1.08 GR; GR value ([5]; 0.01 µM): 1.02 GR; GR value ([5]; 0.03162 µM): -0.513 GR
